How the values were obtained:
[1] = molecular target: T1, 17-beta-hydroxysteroid dehydrogenase type 1 (Homo sapiens, UniProt P14061)
T1 sequence (P14061 whole entry): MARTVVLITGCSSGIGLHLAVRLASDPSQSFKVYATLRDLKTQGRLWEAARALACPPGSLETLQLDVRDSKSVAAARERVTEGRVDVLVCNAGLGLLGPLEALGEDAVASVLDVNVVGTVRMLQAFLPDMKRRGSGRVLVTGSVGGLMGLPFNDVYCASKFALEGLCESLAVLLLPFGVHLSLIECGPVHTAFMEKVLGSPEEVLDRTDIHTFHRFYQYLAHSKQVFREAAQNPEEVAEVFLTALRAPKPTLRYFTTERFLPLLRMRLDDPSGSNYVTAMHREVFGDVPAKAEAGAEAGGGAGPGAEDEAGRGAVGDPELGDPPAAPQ
Description: Inhibition of human placental cytosolic fraction 17beta-HSD1 using [3H]-E1 as substrate in presence of NAD+ by radio-HPLC analysis

[2] = molecular target: T2, Estradiol 17-beta-dehydrogenase 2 (Mus musculus, UniProt P51658); assay: biochemical; assay type: tissue-based, Liver
T2 sequence (P51658 whole entry): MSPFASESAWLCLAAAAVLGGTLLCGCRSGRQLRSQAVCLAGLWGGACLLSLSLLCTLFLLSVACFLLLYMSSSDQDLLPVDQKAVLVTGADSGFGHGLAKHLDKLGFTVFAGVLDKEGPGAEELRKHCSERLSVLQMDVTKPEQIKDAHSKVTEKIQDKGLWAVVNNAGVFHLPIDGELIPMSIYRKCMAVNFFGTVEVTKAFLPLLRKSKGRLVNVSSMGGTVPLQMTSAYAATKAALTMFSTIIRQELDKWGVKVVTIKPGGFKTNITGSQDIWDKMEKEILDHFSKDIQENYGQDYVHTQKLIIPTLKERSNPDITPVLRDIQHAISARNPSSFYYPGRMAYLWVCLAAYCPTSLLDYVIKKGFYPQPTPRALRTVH
Description: Inhibition of mouse liver homogenate 17beta-HSD2 using [3H]-E2 as substrate in presence of NAD+ by radio-HPLC analysis

[3] = in vitro; settings: human, s9
Description: Half life in human liver S9 fraction in presence of NADPH, UDPGA, PAPS

[4] = molecular target: T3, 17-beta-hydroxysteroid dehydrogenase type 1 (Mus musculus, UniProt P51656); assay type: cell-based, HEK293
T3 sequence (P51656 whole entry): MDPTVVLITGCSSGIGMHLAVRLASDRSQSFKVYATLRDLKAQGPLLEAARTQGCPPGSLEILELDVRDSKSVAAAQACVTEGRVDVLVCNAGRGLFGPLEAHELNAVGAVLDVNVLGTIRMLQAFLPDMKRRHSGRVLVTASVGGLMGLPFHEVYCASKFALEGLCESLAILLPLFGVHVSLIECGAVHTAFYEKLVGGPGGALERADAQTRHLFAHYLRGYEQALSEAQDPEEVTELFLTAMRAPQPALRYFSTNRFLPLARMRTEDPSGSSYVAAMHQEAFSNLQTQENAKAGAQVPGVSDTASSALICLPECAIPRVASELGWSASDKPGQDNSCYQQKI
Description: Inhibition of recombinant mouse 17beta-HSD1 expressed in HEK293 cells using [3H]-E1 as substrate in presence of NAD+ by radio-HPLC analysis

[5] = molecular target: T4, PXR (NR1I2); CYP3 induction (Homo sapiens, UniProt O75469); assay: in vitro
T4 sequence (O75469 whole entry): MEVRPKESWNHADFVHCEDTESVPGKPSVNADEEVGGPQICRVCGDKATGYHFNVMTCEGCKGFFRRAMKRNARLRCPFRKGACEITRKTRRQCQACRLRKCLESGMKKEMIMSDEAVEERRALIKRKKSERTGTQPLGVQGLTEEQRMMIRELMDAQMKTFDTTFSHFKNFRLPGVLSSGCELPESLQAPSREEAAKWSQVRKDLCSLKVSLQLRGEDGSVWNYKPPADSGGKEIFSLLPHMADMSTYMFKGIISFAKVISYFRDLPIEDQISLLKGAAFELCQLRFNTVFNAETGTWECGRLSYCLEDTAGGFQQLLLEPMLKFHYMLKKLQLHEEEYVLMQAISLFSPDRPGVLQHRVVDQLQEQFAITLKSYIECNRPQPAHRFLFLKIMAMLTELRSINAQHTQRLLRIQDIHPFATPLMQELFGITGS
Description: Agonist activity at recombinant human PXR assessed as induction of CYP3 at 3.16 uM after 60 mins relative to control

[6] = molecular target: T5, constitutive androstane receptor (NR1I3); CYP2 induction (Homo sapiens, UniProt Q14994); assay: in vitro
T5 sequence (Q14994 whole entry): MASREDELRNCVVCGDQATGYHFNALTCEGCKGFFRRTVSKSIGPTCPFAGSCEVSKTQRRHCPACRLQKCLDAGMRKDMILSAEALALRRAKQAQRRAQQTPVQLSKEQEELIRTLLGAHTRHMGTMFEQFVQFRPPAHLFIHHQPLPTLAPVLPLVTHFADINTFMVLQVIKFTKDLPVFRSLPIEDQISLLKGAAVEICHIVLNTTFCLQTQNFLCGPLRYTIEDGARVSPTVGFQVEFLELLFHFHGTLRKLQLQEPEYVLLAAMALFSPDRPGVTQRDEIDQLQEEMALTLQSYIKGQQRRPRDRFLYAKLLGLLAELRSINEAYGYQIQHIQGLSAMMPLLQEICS
Description: Agonist activity at recombinant human constitutive androstane receptor assessed as induction of CYP2 at 3.16 uM relative to control

[7] = molecular target: T6, AhR (aryl hydrocarbon receptor); CYP1 induction (Homo sapiens, UniProt P35869); assay: in vitro; settings: hepg2
T6 sequence (P35869 whole entry): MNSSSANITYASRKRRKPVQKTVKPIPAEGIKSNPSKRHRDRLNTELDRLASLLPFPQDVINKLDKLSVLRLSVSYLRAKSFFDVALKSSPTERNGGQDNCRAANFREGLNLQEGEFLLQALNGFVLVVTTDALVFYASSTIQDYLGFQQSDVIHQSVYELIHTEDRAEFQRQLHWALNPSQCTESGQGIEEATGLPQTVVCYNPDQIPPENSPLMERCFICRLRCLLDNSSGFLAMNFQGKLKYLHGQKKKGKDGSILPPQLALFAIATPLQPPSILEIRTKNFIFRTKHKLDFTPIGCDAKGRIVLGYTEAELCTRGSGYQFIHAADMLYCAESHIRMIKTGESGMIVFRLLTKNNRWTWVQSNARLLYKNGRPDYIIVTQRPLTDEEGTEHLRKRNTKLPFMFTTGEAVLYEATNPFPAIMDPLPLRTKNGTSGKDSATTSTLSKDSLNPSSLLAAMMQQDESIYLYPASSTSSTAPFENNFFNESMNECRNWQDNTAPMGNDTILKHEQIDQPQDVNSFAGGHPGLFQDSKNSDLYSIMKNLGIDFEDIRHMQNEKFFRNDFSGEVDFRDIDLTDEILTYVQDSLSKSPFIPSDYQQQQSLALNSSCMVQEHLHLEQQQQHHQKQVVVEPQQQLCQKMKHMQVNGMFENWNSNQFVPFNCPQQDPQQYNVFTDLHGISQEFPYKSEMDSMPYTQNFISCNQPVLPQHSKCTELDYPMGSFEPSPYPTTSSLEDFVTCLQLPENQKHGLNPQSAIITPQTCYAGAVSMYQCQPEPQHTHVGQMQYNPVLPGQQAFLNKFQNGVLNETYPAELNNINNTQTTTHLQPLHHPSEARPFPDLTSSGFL
Description: Agonist activity at AhR in human HepG2 assessed as induction of CYP1 at 3.16 uM relative to control

IC50 [1] [nM]	IC50 [2] [nM]	half-life [3] [min]	Structure (SMILES)	further results
306			Cc1c(O)cccc1C(=O)c1ccc(-c2cccc(NS(=O)(=O)c3ccccc3)c2)s1	
15.6	2.7	< 5	O=C(c1ccc(-c2cccc(NS(=O)(=O)c3ccccc3)c2)s1)c1c(F)ccc(O)c1Cl	
0.7	6.2	40	O=C(c1ccc(-c2cccc(NS(=O)(=O)c3ccc(Cl)cc3)c2)s1)c1cc(F)c(F)c(O)c1F	
0.1	9.9	32	Cc1ccc(S(=O)(=O)Nc2cccc(-c3ccc(C(=O)c4cc(F)c(F)c(O)c4F)s3)c2)cc1	
20.3	2.7	< 5	O=C(c1ccc(-c2cccc(NS(=O)(=O)c3ccccc3)c2)s1)c1cccc(O)c1Cl	
8.2			O=C(c1ccc(Cl)c(O)c1)c1ccc(-c2cccc(NS(=O)(=O)c3ccccc3)c2)s1	
		51	O=C(c1ccc(-c2cccc(NS(=O)(=O)c3ccccc3C(F)(F)F)c2)s1)c1cc(F)c(F)c(O)c1F	

The next lines start with the compound.

Structure (SMILES)	IC50 [1] [nM]	IC50 [2] [nM]	half-life [3] [min]	further results
O=C(c1ccc(-c2cccc(NS(=O)(=O)c3ccccc3)c2)s1)c1c(F)ccc(O)c1F	1.4	30.5		
O=C(c1ccc(-c2cccc(NS(=O)(=O)c3cccc(Cl)c3)c2)s1)c1cc(F)c(F)c(O)c1F	0.8	5.6	42	
O=C(c1ccc(-c2cccc(NS(=O)(=O)c3ccc(F)cc3)c2)s1)c1cc(F)c(F)c(O)c1F		27.3	32	
O=C(c1ccc(-c2cccc(NS(=O)(=O)c3ccccc3OC(F)(F)F)c2)s1)c1cc(F)c(F)c(O)c1F			60	IC50 [4]: 1760 nM; activity at 1 h, 3.16 µM [5]: < 5%; activity at 3.16 µM [6]: < 5%; activity at 3.16 µM [7]: < 5%
Cc1cccc(S(=O)(=O)Nc2cccc(-c3ccc(C(=O)c4cc(F)c(F)c(O)c4F)s3)c2)c1	0.1	7.9	28	
O=C(c1ccc(-c2cccc(NS(=O)(=O)c3ccccc3)c2)s1)c1c(Cl)ccc(O)c1F	1.7			

Reference: ChEMBL document CHEMBL4400508, “Targeted Endocrine Therapy: Design, Synthesis, and Proof-of-Principle of 17β-Hydroxysteroid Dehydrogenase Type 2 Inhibitors in Bone Fracture Healing” (J Med Chem, 2019)
